Measured values as given in paper PMC7686313, “Phase 1 study of mTORC1/2 inhibitor sapanisertib (TAK-228) in advanced solid tumours, with an expansion phase in renal, endometrial or bladder cancer” (British Journal of Cancer, 2020).

Key:
[1] = Dose escalation: dose-limiting toxicities and maximum tolerated dose; type: in vivo
Source text: This Phase 1, open-label, dose-escalation and expansion study aimed to determine the safety, tolerability and preliminary efficacy of sapanisertib in patients with advanced solid tumours. During dose-escalation, patients received one of four sapanisertib dosing schedules: once daily (QD), once weekly (QW; days 1, 8, 15 and 22), QD for 3 days on/4 days off each week (QD × 3dQW; days 1–3, 8–10, 15–17 and 22–24) and QD for 5 days on/2 days off each week (QD × 5dQW; days 1–5, 8–12, 15–19 and 22–26) in a 28-day cycle with dose escalation based on a modified Fibonacci schema.
The maximum tolerated dose (MTD) was to be determined in the QD schedule before enrolment of initial single-patient cohorts for the QW and QDx3d QW schedules. […] Subsequent dose cohorts for that schedule included 3–6 patients. […] Once the MTD was identified for each of the dosing schedules, an additional six patients were enrolled to obtain further PK and safety data prior to expansion.

[2] = system: advanced solid tumours; test: Tumour response according to RECIST v1.1, advanced solid tumours; type: in vivo, human; settings: for Duration of partial response (PR): dose-escalation
Method: Patients who received ≥1 dose of sapanisertib were included in the safety population. The response-evaluable population included patients who received ≥1 dose of sapanisertib, had measurable disease at baseline, and had ≥1 postbaseline assessment. In the dose-escalation phase, the evaluable population included patients who received ≥75% of the planned sapanisertib doses in cycle 1 or experienced a DLT. Response was assessed according to the RECIST v1.1[24] after every two treatment cycles. Adverse events (AEs) were assessed using the National Cancer Institute Common Terminology Criteria for Adverse Events, v4.0. Patients were provided with a home blood-glucose meter to monitor their fasting predose blood-glucose measurements to assess hyperglycaemia as an on-target AE and PD marker.

[3] = system: renal cell carcinoma (RCC); test: Tumour response according to RECIST v1.1, expansion phase, RCC; type: in vivo, human
Source text: (§1) Patients could be considered for enrolment in one of three disease-specific cohorts: (1) advanced or recurrent endometrial adenocarcinoma with disease progression following ≥1 prior chemotherapy regimen; (2) advanced/metastatic urothelial cancer (carcinoma of the bladder, ureter and/or renal pelvis), progressive after ≥1 prior therapy in the metastatic/unresectable setting; (3) advanced RCC after failure of ≥1 prior antivascular endothelial growth factor therapy with no prior TORC1 inhibitor therapy, or progressed on treatment with TORC1 inhibitor therapy.

[4] = system: bladder cancer; test: Tumour response according to RECIST v1.1, expansion phase, bladder cancer; type: in vivo, human; settings: expansion Bladder cancer (n = 13)
Source text: as §1

[5] = system: p4EBP1, pS6, pPRAS40 and pNDRG1 (TORC1/2 biomarkers); test: Pharmacodynamics in paired tumour biopsies; type: in vivo, human; settings: five patients with paired tumour samples; baseline vs cycle 1, week 2
Method: The tissue PK and PD of sapanisertib were investigated in skin and tumour biopsies. During dose escalation, 3-mm core skin biopsies were collected predose and on any day from 8–15 (3 h postdose) of cycle 1 for immunohistochemistry (IHC) assessment of mTORC1 downstream effects (p4EBP1, pS6) and pNDRG1 (Mosaic Laboratories, Lake Forest, CA). […] Archival tumour tissues for assessment of prognostic markers were collected at baseline.
During dose-escalation, the PD effect of sapanisertib on downstream effectors of TORC1 (p4EBP1 and pS6) and TORC2 (pPRAS40 and pNDRG1) was measured in skin-tissue biopsies from 88 patients collected at baseline and days 8–15 (3 h postdose) of cycle 1. […] PD data in tumour tissue were limited due to the small number of samples. For the five patients with paired tumour samples available for review (biopsies at baseline and cycle 1, week 2), the levels of p4EBP1, pS6, pPRAS40 and pNDRG1 decreased after sapanisertib treatment (Supplementary Fig. 4).

[6] = system: refractory clear-cell RCC; set-up: method as in earlier work; settings: single-agent 30 mg QW; cited from earlier work
[7] = dose-escalation QD 2–7 mg (n = 21)
[8] = dose-escalation QD × 3d 6–20 mg (n = 27)
[9] = dose-escalation QD × 5d 7–13 mg (n = 18)
[10] = dose-escalation QW 7–40 mg (n = 25)
[11] = expansion RCC TORC1 failure (n = 23)
[12] = expansion RCC TORC1 naïve (n = 18)

## CC(C)n1nc(-c2ccc3oc(N)nc3c2)c2c(N)ncnc21 [Sapanisertib]
[1]; QD
  Recommended Phase 2 dose: 5 mg
[1]; QD 4 mg
  DLTs: Grade 3 hyperglycaemia
[1]; QD 6 mg
  DLTs: Grade 3 maculo-papular rash; grade 3 diarrhoea; grade 3 asthenia; grade 5 ventricular fibrillation/cardiac arrest
[1]; QD 7 mg
  DLTs: Grade 3 hyperglycaemia and grade 4 anaemia; grade 3 maculo-papular rash
[1]; QD schedule
  Maximum tolerated dose (MTD): 6 mg
[1]; QD × 3dQW 9 mg
  DLTs: Grade 3 hypophosphatemia
[1]; QD × 3dQW 12 mg
  DLTs: Grade 3 stomatitis and grade 3 dehydration; grade 3 asthenia
[1]; QD × 3dQW 16 mg
  DLTs: Grade 3 stomatitis
[1]; QD × 3dQW 20 mg
  DLTs: Grade 3 stomatitis; grade 3 stomatitis
[1]; QD × 3dQW schedule
  Maximum tolerated dose (MTD): 9 mg
[1]; QD × 5dQW 13 mg
  DLTs: Grade 3 fatigue; grade 3 asthenia; grade 3 stomatitis
[1]; QD × 5dQW schedule
  Maximum tolerated dose (MTD): 7 mg
[1]; QW
  Recommended Phase 2 dose: 30 mg
[1]; QW 40 mg
  DLTs: Grade 3 dry mouth and fatigue; grade 3 asthenia
[1]; QW schedule
  Maximum tolerated dose (MTD): 40 mg
[2]; both phases
  Patients achieving PR: nine
[2]; both phases, 40 mg QW
  Patients with CR: One
[2]; [7]
  Best overall response CR: 0 n (%)
  Best overall response PD: 10 (48) n (%)
  Best overall response PR: 0 n (%)
  Best overall response SD < 6 months: 9 (43) n (%)
  Best overall response SD ≥ 6 months: 2 (10) n (%)
  CBR (CR + PR + SD ≥ 6 months): 2 (10) n (%)
  ORR (CR + PR): 0 n (%)
[2]; [8]
  Best overall response CR: 0 n (%)
  Best overall response PD: 14 (52) n (%)
  Best overall response PR: 0 n (%)
  Best overall response SD < 6 months: 12 (44) n (%)
  Best overall response SD ≥ 6 months: 1 (4) n (%)
  CBR (CR + PR + SD ≥ 6 months): 1 (4) n (%)
  ORR (CR + PR): 0 n (%)
[2]; [9]
  Best overall response CR: 0 n (%)
  Best overall response PD: 12 (67) n (%)
  Best overall response PR: 1 (6) n (%)
  Best overall response SD < 6 months: 4 (22) n (%)
  Best overall response SD ≥ 6 months: 1 (6) n (%)
  CBR (CR + PR + SD ≥ 6 months): 2 (11) n (%)
  ORR (CR + PR): 1 (6) n (%)
[2]; [10]
  Best overall response CR: 0 n (%)
  Best overall response PD: 13 (52) n (%)
  Best overall response PR: 2 (8) n (%)
  Best overall response SD < 6 months: 9 (36) n (%)
  Best overall response SD ≥ 6 months: 1 (4) n (%)
  CBR (CR + PR + SD ≥ 6 months): 3 (12) n (%)
  ORR (CR + PR): 2 (8) n (%)
[2]; one patient with carcinoid tumour receiving 10 mg QD × 5dQW
  Duration of partial response (PR): > 32 months
[2]; two patients with RCC receiving 15 mg QW and 40 mg QW
  Duration of partial response (PR): > 32 months
[3]; [11]
  Best overall response CR: 0 n (%)
  Best overall response PD: 7 (30) n (%)
  Best overall response PR: 2 (9) n (%)
  Best overall response SD < 6 months: 9 (39) n (%)
  Best overall response SD ≥ 6 months: 5 (22) n (%)
  CBR (CR + PR + SD ≥ 6 months): 7 (30) n (%)
  ORR (CR + PR): 2 (9) n (%)
[3]; [12]
  Best overall response CR: 1 (6) n (%)
  Best overall response PD: 5 (28) n (%)
  Best overall response PR: 3 (17) n (%)
  Best overall response SD < 6 months: 7 (39) n (%)
  Best overall response SD ≥ 6 months: 1 (6) n (%)
  CBR (CR + PR + SD ≥ 6 months): 5 (28) n (%)
  ORR (CR + PR): 4 (22) n (%)
[3]; expansion phase
  Objective responses persisting for > 16 months: Four of the seven
[3]; expansion, one patient with TORC1 inhibitor−naïve RCC receiving 40 mg QW
  Duration of complete response (CR): 16 months
[4]
  Best overall response CR: 0 n (%)
  Best overall response PD: 8 (62) n (%)
  Best overall response PR: 0 n (%)
  Best overall response SD < 6 months: 4 (31) n (%)
  Best overall response SD ≥ 6 months: 1 (8) n (%)
  CBR (CR + PR + SD ≥ 6 months): 1 (8) n (%)
  ORR (CR + PR): 0 n (%)
[5]
  Levels of p4EBP1, pS6, pPRAS40 and pNDRG1 in tumour: decreased
[6]
  Responses: no responses
